From PubChem BioAssay AID2060619 (Molecular Pharmacology Branch, DTP, NCI, 2025)

System: 323965-272-R-J2-PDC complex spheroid viability
Experiment: Anticancer human tumor 323965-272-R-J2-PDC patient-derived pancreatic carcinoma cell line growth inhibition [CLK]
Conditions: for IC50: curve of first compound; for viability, T/C: stronger effect = lower value
Procedure, shortened: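 Multi-cell-type spheroids combined patient-derived tumor cells with HUVEC endothelial cells and human mesenchymal stem cells. Paired agents were dosed in half-log steps down from about clinical Cmax, or from 10 microM where Cmax was unknown.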
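Note: spheroids exposed to agents for seven days before readout.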
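Throughout, for viability, T/C: percent of DMSO vehicle control wells so 100% = untreated growth.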

C=CC(=O)Nc1cc(Nc2nccc(-c3cn(C)c4ccccc34)n2)c(OC)cc1N(C)CCN(C)C + CN1CCN(c2cc(C(=O)Nc3cc4cc(-c5cnn(C)c5)ccc4cn3)ccn2)CC1
IC50 (second compound 0.0316 µM): > 300 nM
IC50 (second compound 0.1 µM): > 300 nM
IC50 (second compound 0.316 µM): < 0.949 nM
IC50 (second compound 1 µM): < 0.949 nM
IC50 (second compound 3.16 µM): < 0.949 nM
IC50 (second compound 10 µM): < 0.949 nM
viability, T/C (second compound 0.0316 µM, first compound 0.000949 µM): 92.1%
viability, T/C (second compound 0.0316 µM, first compound 0.003 µM): 86.8%
viability, T/C (second compound 0.0316 µM, first compound 0.00949 µM): 89.3%
viability, T/C (second compound 0.0316 µM, first compound 0.03 µM): 89.6%
viability, T/C (second compound 0.0316 µM, first compound 0.0949 µM): 82%
viability, T/C (second compound 0.0316 µM, first compound 0.3 µM): 75.8%
viability, T/C (second compound 0.1 µM, first compound 0.000949 µM): 73.2%
viability, T/C (second compound 0.1 µM, first compound 0.003 µM): 76.4%
viability, T/C (second compound 0.1 µM, first compound 0.00949 µM): 59.1%
viability, T/C (second compound 0.1 µM, first compound 0.03 µM): 61.8%
viability, T/C (second compound 0.1 µM, first compound 0.0949 µM): 52.2%
viability, T/C (second compound 0.1 µM, first compound 0.3 µM): 51.4%
viability, T/C (second compound 0.316 µM, first compound 0.000949 µM): 21.9%
viability, T/C (second compound 0.316 µM, first compound 0.003 µM): 26.8%
viability, T/C (second compound 0.316 µM, first compound 0.00949 µM): 21.4%
viability, T/C (second compound 0.316 µM, first compound 0.03 µM): 19.1%
viability, T/C (second compound 0.316 µM, first compound 0.0949 µM): 17.7%
viability, T/C (second compound 0.316 µM, first compound 0.3 µM): 17.3%
viability, T/C (second compound 1 µM, first compound 0.000949 µM): 3.35%
viability, T/C (second compound 1 µM, first compound 0.003 µM): 2.76%
viability, T/C (second compound 1 µM, first compound 0.00949 µM): 7.03%
viability, T/C (second compound 1 µM, first compound 0.03 µM): 2.91%
viability, T/C (second compound 1 µM, first compound 0.0949 µM): 2.48%
viability, T/C (second compound 1 µM, first compound 0.3 µM): 2.38%
viability, T/C (second compound 3.16 µM, first compound 0.000949 µM): 3.68%
viability, T/C (second compound 3.16 µM, first compound 0.003 µM): 3.94%
viability, T/C (second compound 3.16 µM, first compound 0.00949 µM): 5.04%
viability, T/C (second compound 3.16 µM, first compound 0.03 µM): 2.7%
viability, T/C (second compound 3.16 µM, first compound 0.0949 µM): 2.6%
viability, T/C (second compound 3.16 µM, first compound 0.3 µM): 3.13%
viability, T/C (second compound 10 µM, first compound 0.000949 µM): 4.03%
viability, T/C (second compound 10 µM, first compound 0.003 µM): 4.64%
viability, T/C (second compound 10 µM, first compound 0.00949 µM): 4.92%
viability, T/C (second compound 10 µM, first compound 0.03 µM): 3.05%
viability, T/C (second compound 10 µM, first compound 0.0949 µM): 2.71%
viability, T/C (second compound 10 µM, first compound 0.3 µM): 3.08%

CC(Nc1ccc2c(c1)OCCn1cc(N3C(=O)OCC3C(F)F)nc1-2)C(N)=O (centres undefined) + CN1CCN(c2cc(C(=O)Nc3cc4cc(-c5cnn(C)c5)ccc4cn3)ccn2)CC1
IC50 (second compound 0.0316 µM): 7280 nM
IC50 (second compound 0.1 µM): 327 nM
IC50 (second compound 0.316 µM): < 31.6 nM
IC50 (second compound 1 µM): < 31.6 nM
IC50 (second compound 3.16 µM): < 31.6 nM
IC50 (second compound 10 µM): < 31.6 nM
viability, T/C (second compound 0.0316 µM, first compound 0.0316 µM): 91.5%
viability, T/C (second compound 0.0316 µM, first compound 0.1 µM): 78.7%
viability, T/C (second compound 0.0316 µM, first compound 0.316 µM): 79%
viability, T/C (second compound 0.0316 µM, first compound 1 µM): 65.6%
viability, T/C (second compound 0.0316 µM, first compound 3.16 µM): 55.3%
viability, T/C (second compound 0.0316 µM, first compound 10 µM): 48%
viability, T/C (second compound 0.1 µM, first compound 0.0316 µM): 67.6%
viability, T/C (second compound 0.1 µM, first compound 0.1 µM): 58.3%
viability, T/C (second compound 0.1 µM, first compound 0.316 µM): 50%
viability, T/C (second compound 0.1 µM, first compound 1 µM): 45.1%
viability, T/C (second compound 0.1 µM, first compound 3.16 µM): 37.5%
viability, T/C (second compound 0.1 µM, first compound 10 µM): 36.7%
viability, T/C (second compound 0.316 µM, first compound 0.0316 µM): 27.5%
viability, T/C (second compound 0.316 µM, first compound 0.1 µM): 23.4%
viability, T/C (second compound 0.316 µM, first compound 0.316 µM): 18%
viability, T/C (second compound 0.316 µM, first compound 1 µM): 19.1%
viability, T/C (second compound 0.316 µM, first compound 3.16 µM): 19.2%
viability, T/C (second compound 0.316 µM, first compound 10 µM): 14.3%
viability, T/C (second compound 1 µM, first compound 0.0316 µM): 3.27%
viability, T/C (second compound 1 µM, first compound 0.1 µM): 4.12%
viability, T/C (second compound 1 µM, first compound 0.316 µM): 3.78%
viability, T/C (second compound 1 µM, first compound 1 µM): 2.98%
viability, T/C (second compound 1 µM, first compound 3.16 µM): 2.66%
viability, T/C (second compound 1 µM, first compound 10 µM): 2.88%
viability, T/C (second compound 3.16 µM, first compound 0.0316 µM): 3.35%
viability, T/C (second compound 3.16 µM, first compound 0.1 µM): 3.08%
viability, T/C (second compound 3.16 µM, first compound 0.316 µM): 2.69%
viability, T/C (second compound 3.16 µM, first compound 1 µM): 2.63%
viability, T/C (second compound 3.16 µM, first compound 3.16 µM): 2.26%
viability, T/C (second compound 3.16 µM, first compound 10 µM): 2.14%
viability, T/C (second compound 10 µM, first compound 0.0316 µM): 2.98%
viability, T/C (second compound 10 µM, first compound 0.1 µM): 3.37%
viability, T/C (second compound 10 µM, first compound 0.316 µM): 3.23%
viability, T/C (second compound 10 µM, first compound 1 µM): 2.97%
viability, T/C (second compound 10 µM, first compound 3.16 µM): 3.87%
viability, T/C (second compound 10 µM, first compound 10 µM): 2.96%
